According to ChEMBL document CHEMBL4414656, “Alkaloids from the Branches and Leaves of Elaeocarpus angustifolius” (J Nat Prod, 2019):

biological target: Cholinesterase (Homo sapiens, UniProt P06276); assay: Inhibition of human […] BuChE using S-butyrylthiocholine iodide as substrate preincubated for 20 mins followed by substrate addition and measured every 30 secs for 1 hr by Ellman's method
Sequence (P06276 whole entry): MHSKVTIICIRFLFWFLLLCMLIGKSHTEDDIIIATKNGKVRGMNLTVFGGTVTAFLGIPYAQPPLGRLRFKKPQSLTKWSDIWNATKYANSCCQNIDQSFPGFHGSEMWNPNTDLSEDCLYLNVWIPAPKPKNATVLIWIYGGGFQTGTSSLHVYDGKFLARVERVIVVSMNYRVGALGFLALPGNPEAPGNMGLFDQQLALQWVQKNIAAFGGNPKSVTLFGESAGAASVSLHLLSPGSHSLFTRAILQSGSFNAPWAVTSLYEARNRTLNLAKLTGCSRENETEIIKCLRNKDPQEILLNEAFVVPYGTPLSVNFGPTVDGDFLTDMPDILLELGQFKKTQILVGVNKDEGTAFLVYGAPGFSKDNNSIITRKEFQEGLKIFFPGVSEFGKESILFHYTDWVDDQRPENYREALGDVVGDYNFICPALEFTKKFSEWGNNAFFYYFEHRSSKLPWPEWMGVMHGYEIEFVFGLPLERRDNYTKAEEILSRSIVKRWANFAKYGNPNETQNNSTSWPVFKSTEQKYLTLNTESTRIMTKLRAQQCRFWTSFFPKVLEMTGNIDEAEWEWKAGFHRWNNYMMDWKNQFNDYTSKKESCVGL

With Cc1cccc(O)c1C(=O)C[C@@H]1CC[C@@H]2[C@H]3C(=O)c4c(C)cccc4O[C@H]3CCN12 as the molecule, how does the IC50 read?
Its IC50 is over 50 µM.

Cc1cccc2c1C(=O)[C@@H]1[C@H](CCN3C(=O)CC[C@@H]13)O2 was tested. Which IC50 did it give?
Its IC50 is over 50 µM.

For Cc1cccc(O)c1C(=O)C[C@H]1CC[C@H]2[C@@H]3C(=O)c4c(C)cccc4O[C@@H]3CCN12, which IC50 is on record?
Its IC50 is over 50 µM.

Which IC50 does the source give for Cc1cccc2c1C(=O)[C@@H]1[C@H]3CCC(=O)N3CC[C@H]1O2 here?
The IC50 was over 50 µM.

Which IC50 does the source give for Cc1cccc2c1C(=O)[C@@H]1[C@H]3CCC[N@@+]3([O-])CC[C@H]1O2 (racemic) here?
Its IC50 is over 50 µM.

With Cc1cccc(O)c1C(=O)C[C@@H]1CC[C@@H]2[C@H]3C(=O)c4c(C)cccc4O[C@@H]3CCN12 (racemic) as the molecule, how does the IC50 read?
The IC50 was over 50 µM.

For Cc1cccc2c1C(=O)C1=C3CCCN3CCC1O2 (racemic), which IC50 is on record?
The IC50 was 39 µM.

Which IC50 does the source give for Cc1cccc2c1C(=O)[C@H]1[C@H](CCN3C(=O)CC[C@H]13)O2 (racemic) here?
Its IC50 is over 50 µM.

For Cc1cccc(O)c1C(=O)CC1CCCN1CCCO (racemic), which IC50 is on record?
Its IC50 is over 50 µM.

Cc1cccc2c1C(=O)CC(CCCNCCCO)O2 (racemic) was tested. Which IC50 did it give?
The IC50 was over 50 µM.

Which IC50 does the source give for Cc1cccc2c1C(=O)[C@H]1[C@@H](CC[N@@+]3([O-])CCC[C@@H]13)O2 (racemic) here?
The IC50 was 29 µM.

For Cc1cccc2c1C(=O)[C@@H]1[C@H]3CCC[N@+]3([O-])CC[C@H]1O2 (racemic), which IC50 is on record?
The IC50 was over 50 µM.

How did the IC50 turn out when Cc1cccc2c1C(=O)[C@@H]1[C@H]3CCCN3CC[C@H]1O2 (racemic) was run?
The IC50 was 35 µM.

Which IC50 does the source give for Cc1cccc2c1C(=O)[C@H]1[C@H](CCN3CCC[C@H]13)O2 (racemic) [ISOELAEOCARPINE] here?
The IC50 was over 50 µM.
